Columns and labels:
Neratinib/HKI272 = compound: CCOc1cc2ncc(C#N)c(Nc3ccc(OCc4ccccn4)c(Cl)c3)c2cc1NC(=O)/C=C/CN(C)C [Neratinib/HKI272]; assay: increase in dead-cell fraction, 72 h; higher = more death;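 further: breast cancer cell lines in 384-well plates, stained with Hoechst plus LIVE/DEAD far red dye and imaged, cells above an LDR intensity threshold counted dead, Hoechst-negative corpses included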
[1] = compound: CCc1cnn2c(NCc3ccc[n+]([O-])c3)cc(N3CCCC[C@H]3CCO)nc12; assay: as above
[2] = compound: CCN1CCN(Cc2ccc(Nc3ncc(F)c(-c4cc(F)c5nc(C)n(C(C)C)c5c4)n3)nc2)CC1; assay: as above
Flavopiridol [3] = compound: T1, CN1CC[C@H](c2c(O)cc(O)c3c(=O)cc(-c4ccccc4Cl)oc23)[C@H](O)C1 [Flavopiridol]; assay: as above
LEE011/Ribociclib = compound: CN(C)C(=O)c1cc2cnc(Nc3ccc(N4CCNCC4)cn3)nc2n1C1CCCC1 [LEE011/Ribociclib]; assay: as above
BSJ-03-123 = compound: CC(=O)c1c(C)c2cnc(Nc3ccc(N4CCN(CCOCCOCCOCCNC(=O)COc5cccc6c5C(=O)N(C5CCC(=O)NC5=O)C6=O)CC4)cn3)nc2n(C2CCCC2)c1=O [BSJ-03-123]; assay: as above
[4] = compound: CC(=O)c1c(C)c2cnc(Nc3ccc(N4CCNCC4)cn3)nc2n(C2CCCC2)c1=O; assay: as above
THZ1 [5] = compound: T2, CN(C)C/C=C/C(=O)Nc1ccc(C(=O)Nc2cccc(Nc3ncc(Cl)c(-c4c[nH]c5ccccc45)n3)c2)cc1 [THZ1]; assay: as above
THZ531 = compound: CN(C)C/C=C/C(=O)Nc1ccc(C(=O)N2CCC[C@@H](Nc3ncc(Cl)c(-c4c[nH]c5ccccc45)n3)C2)cc1 [THZ531]; assay: GR value, 72 h; higher = faster growth (1 = untreated, <0 = killing);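 further: breast cancer and non-malignant breast epithelial lines, nine half-log doses, viable cells counted by Hoechst and LIVE/DEAD dye imaging versus time-zero plates and DMSO controls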
Flavopiridol [6] = compound: T1, Flavopiridol; assay: as above
[7] = compound: CC(=O)c1c(C)c2cnc(Nc3ccc(N4CCNCC4)cn3)nc2n(C2CCCC2)c1=O; assay: as above
THZ1 [8] = compound: T2, THZ1; assay: as above

MDAMB436
increase in dead-cell fraction (Neratinib/HKI272; 0.0003162 µM): 0.0013 | increase in dead-cell fraction (Neratinib/HKI272; 0.001 µM): 0.0034 | increase in dead-cell fraction (Neratinib/HKI272; 0.003162 µM): -0.0005 | increase in dead-cell fraction (Neratinib/HKI272; 0.01 µM): 0.0014 | increase in dead-cell fraction (Neratinib/HKI272; 0.03162 µM): 0.0028 | increase in dead-cell fraction (Neratinib/HKI272; 0.1 µM): 0.0066 | increase in dead-cell fraction (Neratinib/HKI272; 0.3162 µM): 0.0167 | increase in dead-cell fraction (Neratinib/HKI272; 1 µM): 0.0223 | increase in dead-cell fraction (Neratinib/HKI272; 3.162 µM): 0.0987 | increase in dead-cell fraction ([1]; 0.0001 µM): -0.0027 | increase in dead-cell fraction ([1]; 0.0003162 µM): -0.0028 | increase in dead-cell fraction ([1]; 0.001 µM): 0.0008 | increase in dead-cell fraction ([1]; 0.003162 µM): 0.0055 | increase in dead-cell fraction ([1]; 0.01 µM): 0.0157 | increase in dead-cell fraction ([1]; 0.03162 µM): 0.0896 | increase in dead-cell fraction ([1]; 0.1 µM): 0.0459 | increase in dead-cell fraction ([1]; 0.3162 µM): 0.0256 | increase in dead-cell fraction ([1]; 1 µM): 0.035 | increase in dead-cell fraction ([2]; 0.001 µM): 0.0024 | increase in dead-cell fraction ([2]; 0.003162 µM): -0.005 | increase in dead-cell fraction ([2]; 0.01 µM): 0.0007 | increase in dead-cell fraction ([2]; 0.03162 µM): -0.0009 | increase in dead-cell fraction ([2]; 0.1 µM): 0.0076 | increase in dead-cell fraction ([2]; 0.3162 µM): 0.0116 | increase in dead-cell fraction ([2]; 1 µM): 0.0346 | increase in dead-cell fraction ([2]; 3.162 µM): 0.0531 | increase in dead-cell fraction ([2]; 10 µM): 0.316 | increase in dead-cell fraction (Flavopiridol [3]; 0.0001 µM): 0.003 | increase in dead-cell fraction (Flavopiridol [3]; 0.0003162 µM): -0.0059 | increase in dead-cell fraction (Flavopiridol [3]; 0.001 µM): -0.0173 | increase in dead-cell fraction (Flavopiridol [3]; 0.003162 µM): 0.0048 | increase in dead-cell fraction (Flavopiridol [3]; 0.01 µM): -0.0068 | increase in dead-cell fraction (Flavopiridol [3]; 0.03162 µM): -0.002 | increase in dead-cell fraction (Flavopiridol [3]; 0.1 µM): 0.0119 | increase in dead-cell fraction (Flavopiridol [3]; 0.3162 µM): 0.0798 | increase in dead-cell fraction (Flavopiridol [3]; 1 µM): 0.0954 | increase in dead-cell fraction (LEE011/Ribociclib; 0.001 µM): -0.0008 | increase in dead-cell fraction (LEE011/Ribociclib; 0.003162 µM): -0.0095 | increase in dead-cell fraction (LEE011/Ribociclib; 0.01 µM): -0.0034 | increase in dead-cell fraction (LEE011/Ribociclib; 0.03162 µM): -0.0032 | increase in dead-cell fraction (LEE011/Ribociclib; 0.1 µM): 0.0007 | increase in dead-cell fraction (LEE011/Ribociclib; 0.3162 µM): -0.0014 | increase in dead-cell fraction (LEE011/Ribociclib; 1 µM): -0.0035 | increase in dead-cell fraction (LEE011/Ribociclib; 3.162 µM): -0.0137 | increase in dead-cell fraction (LEE011/Ribociclib; 10 µM): 0.0049 | increase in dead-cell fraction (BSJ-03-123; 0.001 µM): -0.0105 | increase in dead-cell fraction (BSJ-03-123; 0.003162 µM): 0.0015 | increase in dead-cell fraction (BSJ-03-123; 0.01 µM): 0.0056 | increase in dead-cell fraction (BSJ-03-123; 0.03162 µM): -0.0027 | increase in dead-cell fraction (BSJ-03-123; 0.1 µM): 0.0104 | increase in dead-cell fraction (BSJ-03-123; 0.3162 µM): 0.0058 | increase in dead-cell fraction (BSJ-03-123; 1 µM): -0.0041 | increase in dead-cell fraction (BSJ-03-123; 3.162 µM): 0.0011 | increase in dead-cell fraction (BSJ-03-123; 10 µM): 0.0742 | increase in dead-cell fraction ([4]; 0.0003162 µM): -0.0017 | increase in dead-cell fraction ([4]; 0.001 µM): 0.0024 | increase in dead-cell fraction ([4]; 0.003162 µM): -0.0027 | increase in dead-cell fraction ([4]; 0.01 µM): -0.0025 | increase in dead-cell fraction ([4]; 0.03162 µM): 0 | increase in dead-cell fraction ([4]; 0.1 µM): 0.0005 | increase in dead-cell fraction ([4]; 0.3162 µM): -0.0024 | increase in dead-cell fraction ([4]; 1 µM): -0.0052 | increase in dead-cell fraction ([4]; 3.162 µM): 0.0044 | increase in dead-cell fraction (THZ1 [5]; 0.0001 µM): 0.0026 | increase in dead-cell fraction (THZ1 [5]; 0.0003162 µM): -0.0097 | increase in dead-cell fraction (THZ1 [5]; 0.001 µM): -0.0017 | increase in dead-cell fraction (THZ1 [5]; 0.003162 µM): -0.0001 | increase in dead-cell fraction (THZ1 [5]; 0.01 µM): -0.006 | increase in dead-cell fraction (THZ1 [5]; 0.03162 µM): -0.0078 | increase in dead-cell fraction (THZ1 [5]; 0.1 µM): 0.0476 | increase in dead-cell fraction (THZ1 [5]; 0.3162 µM): 0.0477 | increase in dead-cell fraction (THZ1 [5]; 1 µM): 0.0644 | GR value (THZ531; 0.0001 µM): 1.1 GR | GR value (THZ531; 0.0003162 µM): 1.02 GR | GR value (THZ531; 0.001 µM): 0.944 GR | GR value (THZ531; 0.003162 µM): 1.07 GR | GR value (THZ531; 0.01 µM): 1.12 GR | GR value (THZ531; 0.03162 µM): 1.01 GR | GR value (THZ531; 0.1 µM): 0.676 GR | GR value (THZ531; 0.3162 µM): 0.328 GR | GR value (THZ531; 1 µM): 0.0201 GR | GR value (Flavopiridol [6]; 0.0001 µM): 0.988 GR | GR value (Flavopiridol [6]; 0.0003162 µM): 0.97 GR | GR value (Flavopiridol [6]; 0.001 µM): 0.97 GR | GR value (Flavopiridol [6]; 0.003162 µM): 0.889 GR | GR value (Flavopiridol [6]; 0.01 µM): 1.01 GR | GR value (Flavopiridol [6]; 0.03162 µM): 0.905 GR | GR value (Flavopiridol [6]; 0.1 µM): 0.701 GR | GR value (Flavopiridol [6]; 0.3162 µM): 0.125 GR | GR value (Flavopiridol [6]; 1 µM): -0.0603 GR | GR value ([7]; 0.0003162 µM): 1.06 GR | GR value ([7]; 0.001 µM): 1.04 GR | GR value ([7]; 0.003162 µM): 1.03 GR | GR value ([7]; 0.01 µM): 1.04 GR | GR value ([7]; 0.03162 µM): 0.977 GR | GR value ([7]; 0.1 µM): 1.03 GR | GR value ([7]; 0.3162 µM): 1.01 GR | GR value ([7]; 1 µM): 1.09 GR | GR value ([7]; 3.162 µM): 1.02 GR | GR value (THZ1 [8]; 0.0001 µM): 0.928 GR | GR value (THZ1 [8]; 0.0003162 µM): 1.07 GR | GR value (THZ1 [8]; 0.001 µM): 1.03 GR | GR value (THZ1 [8]; 0.003162 µM): 1.02 GR | GR value (THZ1 [8]; 0.01 µM): 1.1 GR | GR value (THZ1 [8]; 0.03162 µM): 1.02 GR | GR value (THZ1 [8]; 0.1 µM): 0.478 GR | GR value (THZ1 [8]; 0.3162 µM): 0.229 GR | GR value (THZ1 [8]; 1 µM): -0.138 GR
